The values that follow come from patent US20080118979A1, “Methods of regulating expression of genes or of gene products using substituted tetracycline compounds” (Paratek Pharmaceuticals, Inc., priority 2006, published 2008).

For data set [1] the following is noted: Mansuy and Bujard Curr. Op. Neurobiol. 10:593-96; cited from earlier work.
Data set [2] relates to rtTA2-MT2. Nature of the data set: rtTA-mediated gene activation, luciferase positive cell line MT2. Format: cell-based. An excerpt: FIGS. 2A-2D show a comparison of doxycycline and 9-t-butyl doxcycline in 34R and MT2 rtTA mutants. FIGS. 2A and 2B show the effect of doxycyline on 34R and MT2 mutants, respectively. FIGS. 2C and 2D show the effect of 9-t-butyl doxycycline on 34R and MT2 mutants, respectively.

The test system of data set [3] is tetR, luxCDABE operon under the regulation of the tetA promotor/operator. Nature of the data set: JE305K+pTetLux1 tet detection system (Klux). Format: cell-based. The text has this:
In another embodiment, a tetracycline compound of the invention can be used to regulate transcription of a gene or gene product under the control of a native Tet operator and in the presence of a native TetR in a cell. In one embodiment, the invention pertains to such a cell. For example, JE305K is a strain that has disrupted acrB and waaP genes and comprises a plasmid which contains tetR, and the luxCDABE operon (from P. luminescens) under the regulation of the tetA promotor/operator.
The substituted tetracycline compounds were examined in a dose response analysis using the JE305K+pTetLux1 tet detection system. JE305K is a strain that has disrupted acrB and waaP genes. pTetLux1 is a plasmid which contains tetR, and has the luxCDABE operon (from P. luminescens) under the regulation of the tetA promotor/operator. The plasmid was obtained from the University of Turku, Finland.

Data set [4] concerns transactivator fusion protein. The settings on record: as demonstrated in U.S. Pat. No. 5,789,156; cited from earlier work.

As for `C[C@H]1c2cccc(O)c2C(=O)C2=C(O)[C@]3(O)C(=O)C(C(N)=O)=C(O)[C@@H](N(C)C)[C@@H]3[C@@H](O)[C@@H]21` [doxycycline], in data set [1], the “penetration of the blood-brain barrier” value is listed as “limited penetration of the blood-brain barrier”.
For 5-phenylcarbamate doxcycline, the “activation of rtTA2s-M2 compared with doxycycline” value in data set [2] is “two fold better activator”.
Take `CCCC#Cc1ccc(O)c2c1C[C@H]1C[C@H]3[C@H](N(C)C)C(O)=C(C(N)=O)C(=O)[C@@]3(O)C(O)=C1C2=O`: the “activity in the JE305K+pTetLux1 assay” value in data set [3] is listed as “active”.
In the case of `Cc1c2c(c(O)c3c(O)cccc13)C(=O)[C@]1(O)C(=O)C(C(N)=O)=C(O)[C@@H](N(C)C)[C@@H]1C2` [anhydrotetracycline], in data set [4], the “strength as inducing agent” value is “strong inducing agents”.
